Results published in patent publication US5272141A, “Contraceptive and menstrual cycle controlling drug having oncostatic therapeutic properties for treatment of mammary tumors and melanomas, and method therefor” (priority 1990, dated 1993).
Entries after “also recorded” stand apart in the source; their conditions may differ. Read-outs that look alike come from different tables or passages of the source.

Key:
estrogen receptor = experiment: Estrogen receptor number in MCF-7; format: cell-based, human
normal tissues = experiment: Binding in normal tissues
neoplastic tissues = experiment: Binding in neoplastic tissues; conditions: compared with normal tissues
tumors [1] = experiment: Long term treatment: arrest and partial regression of tumors in human; format: in vivo; conditions: in some cases
[2] = Hematic, biochemical, electrophoretic, organ, bone marrow and histological toxicity tests; conditions: in vivo
Description: The haematochemical, electrophoretic tests, and the tests for determining the status and weight of organs, bone marrow, and the hystological tests have not shown any particular toxicity and, based on these observations, which show the low toxicity of the individual compounds and associations, a favourable opinion has been released about the starting of the clinical experimentation.

Acute toxicity in rats = conditions: rat, in vivo; for LD50: po, per os, read-out: DL50 (the source's name)
Protocol: (§1) In the specific case of melatonin, acute
1) Rats, intraperitoneally
2) Rats, per os DL50 = greater than
(§2) (observation period 14 days)
the symbol DL50 means the amount of material which kills 50% of the
(§3) With respect to the toxicity of 2-iodomelatonin and 2-bromomelatonin, the acute toxicity tests have been carried out:
1) in rats per os: DL50 greater than 200 mg/Kg

in vivo = experiment: in vivo; design: species or system rabbits; conditions: rabbit, iv
Description: as §1
3) rabbits, intravenously
as §2
(§4) the symbol DL50 means the amount of material which kills 50% of the […]

[3] = Sub-acute toxicity in rats; conditions: rat, in vivo, sc, subcutaneously, observation period 25 days, read-out: DL50
Description: and the sub-acute toxicity in:
(observation period 25 days).
as §4

human contraception = conditions: comparatively high doses; cited from earlier work
[4] = tested on: stimulated dopamine release in the retina; conditions: cited from earlier work
female patients = experiment: Clinical experimentation of associations used as contraceptives in eighty two female patients; format: in vivo, human; conditions: doses lower than those of melatonin
Protocol: With respect to the clinic experimentation, preliminary tests has been carried out on eighty two female patients, having an age between 18 and 46 years, with the following associations of the disclosed substances:
a) melatonin and norethisterone with doses per day of respectively 100-200 mg and 0.30-0.50 mg:
b) melatonin and 1-norgestrel with doses per day of respectively 100-200 mg and 0.08-0.16 mg;
c) 2-iodomelationin and norethisterone with doses per day of respectively 20-40 mg and 0.30-0.50 mg; mg;
d) 2-iodomelatonin and norgestrel with doses per day of respectively 20-40 mg and 0.35-0.80 mg;
e) 2-iodomelatonin and 1-norgestrel with doses per day of respectively 20-40 mg and 0.08-0.16 mg;
f) 2-bromomelatonin and norethisterone with doses per day of respectively 25-50 mg and 0.30-0.50 mg;
g) 2-bromomelatonin and norgestrel with doses per day of respectively 20-40 mg and 0.35-0.80.
h) 2-bomromelatonin and 1-norgestrel with doses pro die of respectively 20-40 mg and 0.08-0.16 mg.

[5] = Biological activity in vivo and in vitro in respect to melatonin; conditions: both in vivo and in vitro
[6] = tested on: ovarian cell line SK-OV-3; experiment: Growth inhibition of ovarian cell line SK-OV-3; format: cell-based, human; conditions: in vitro
ovarian cell line JA = experiment: Growth inhibition of ovarian cell line JA; format: cell-based, human; conditions: in vitro
bladder carcinoma RT-112 = experiment: Growth inhibition of bladder carcinoma RT-112; format: cell-based, human; conditions: in vitro
[7] = tested on: mammary carcinoma MCF-7 cells; experiment: Growth inhibition of mammary carcinoma MCF-7 cells; format: cell-based, human; conditions: in vitro
[8] = tested on: primary cultures of metastatic nodules of a human malignant melanoma; experiment: Growth inhibition in primary cultures of metastatic nodules of a human malignant melanoma; format: cell-based; conditions: in vitro
Description: (§5) In our studies and experiments we have obtained an inhibition greater than 75% of the growth in primary cultures of metastatic nodules of a human malignant melanoma upon treatment in "vitro" with 2-iodomelatonin and 2-bromomelatonin and in primary cultures from different human melanomas, a growth inhibition has been obtained in 6 of 11 patients studied.

[9] = tested on: primary cultures from different human melanomas; experiment: Growth inhibition in primary cultures from different human melanomas; format: cell-based
Description: as §5

B-16 melanoma = experiment: Lung metastasis and local tumor growth in mice implanted with B-16 melanoma; format: in vivo
Description: (§6) The results obtained in our laboratories, however, have demonstered that 2-iodomelatonin and 2-bromomelatonin cause a reduction both in the number of the lung metastasis and of the local growth of tumors in mice inplanted with B-16 melanoma or MS-2 fibrosarcoma cells.

MS-2 fibrosarcoma cells = experiment: Lung metastasis and local tumor growth in mice implanted with MS-2 fibrosarcoma cells; format: in vivo
Description: as §6

[10] = tested on: cellular membranes of melanoma; experiment: Binding to cellular membranes of melanoma
[11] = tested on: cellular membranes of mammary gland cancer; experiment: Binding to cellular membranes of mammary gland cancer
[12] = tested on: cellular membranes of cellular lines infected with oncogenic viruses; experiment: Binding to cellular membranes of cellular lines infected with oncogenic viruses
Acute toxicity in mice = conditions: mouse, in vivo, read-out: DL50 (the source's name)
Protocol: as §3
2) in mice per os and intraperitoneally: DL50 greater than 100 mg/Kg.

[13] = tested on: human neoplastic cell lines; experiment: Oncostatic effects in vitro; format: cell-based
tumors [14] = experiment: Oncostatic effects in vivo
[15] = tested on: cell cultures, neoplasms and hyperplasias; conditions: humans; cited from earlier work
[16] = tested on: cell cultures, neoplasms and hyperplasias; conditions: laboratory animals; cited from earlier work
[17] = tested on: preventing undesired pregnancies; conditions: cited from earlier work

COc1ccc2[nH]cc(CCNC(C)=O)c2c1 [melatonin, reference compound]
estrogen receptor number (estrogen receptor): temporarily caused an increase of the estrogen receptor number
binding (normal tissues): high affinity, saturable and specific
binding affinity (neoplastic tissues): much lower
tumor arrest and regression (tumors [1]): arrest and partial regression of tumors
toxicity in hematic, biochemical, electrophoretic, organ, bone marrow and histological tests [2]: have not shown any particularly toxicity
LD50 at 336 h (Acute toxicity in rats; ip, intraperitoneally, observation period 14 days, read-out: DL50): 462 mg/kg
LD50 (Acute toxicity in rats; observation period 14 days): > 800 mg/kg
LD50 at 336 h (in vivo): 394 mg/kg
LD50 at 600 h [3]: > 192 mg/kg
dose required to express contraceptive action (human contraception): 100 to 200 mg
inhibition of stimulated dopamine release [4]: potent inhibitors of stimulated dopamine release in this organ, very much like melatonin

COc1ccc2[nH]c(I)c(CCNC(C)=O)c2c1 [2-iodomelatonin, N-acetyl-2-iodo-5-methoxytriptamine]
dose reduction relative to melatonin (times lower) (female patients): five to ten
activity relative to that of melatonin (times higher) [5]: seven to ten
inhibition of the growth [6]: dose-dependant inhibition of the growth
inhibition of the growth (ovarian cell line JA): dose-dependant inhibition of the growth
inhibition of the growth (bladder carcinoma RT-112): dose-dependant inhibition of the growth
inhibition of the growth [7]: dose-dependant inhibition of the growth; also recorded: inhibited the growth of the cellular lines MCF-7 in a dose dependant manner
inhibition of the growth [8]: greater than 75%
growth inhibition obtained (patients responding of patients studied) [9]: 6 of 11
local growth of tumors (B-16 melanoma): reduction
number of the lung metastasis (B-16 melanoma): reduction
local growth of tumors (MS-2 fibrosarcoma cells): reduction
number of the lung metastasis (MS-2 fibrosarcoma cells): reduction
binding (normal tissues): high affinity, saturable and specific
binding affinity (neoplastic tissues): much lower
tumor arrest and regression (tumors [1]): arrest and partial regression of tumors
binding to cellular membranes [10]: bind to the cellular membranes
binding to cellular membranes [11]: bind to the cellular membranes
binding to cellular membranes [12]: bind to the cellular membranes
toxicity in hematic, biochemical, electrophoretic, organ, bone marrow and histological tests [2]: have not shown any particularly toxicity
LD50 (Acute toxicity in rats): > 200 mg/kg
LD50 (Acute toxicity in mice; ip, intraperitoneally): > 100 mg/kg
LD50 (Acute toxicity in mice; po, per os): > 100 mg/kg
oncostatic effects [13]: Powerful oncostatic effects
oncostatic effects (tumors [14]): Powerful oncostatic effects
inhibition of stimulated dopamine release [4]: potent inhibitors

COc1ccc2[nH]c([125I])c(CCNC(C)=O)c2c1 [2-(125I)-iodomelatonin]
binding [15]: specific and saturable binding
binding [16]: specific and saturable binding

C#C[C@]1(O)CC[C@H]2[C@@H]3CCC4=CC(=O)CC[C@@H]4[C@H]3CC[C@@]21C [Norethisterone, norethisterone]
undesired pregnancies ([17]; mini-pill, alone): about 2.35%

C#C[C@]1(O)CC[C@H]2[C@@H]3CCC4=CC(=O)CC[C@@H]4[C@H]3CC[C@@]21CC [1-norgestrel]
contraceptive results compared with norethisterone mini-pill ([17]; reduced doses (0.08-0.16 mg)): better results

COc1ccc2[nH]c(Br)c(CCNC(C)=O)c2c1 [2-bromomelatonin, N-acetyl-2-bromo-5-methoxytriptamine]
dose reduction relative to melatonin (times lower) (female patients): five to ten
activity relative to that of melatonin (times higher) [5]: seven to ten
inhibition of the growth [6]: dose-dependant inhibition of the growth
inhibition of the growth (ovarian cell line JA): dose-dependant inhibition of the growth
inhibition of the growth (bladder carcinoma RT-112): dose-dependant inhibition of the growth
inhibition of the growth [7]: dose-dependant inhibition of the growth; also recorded: inhibited the growth of the cellular lines MCF-7 in a dose dependant manner
inhibition of the growth [8]: greater than 75%
growth inhibition obtained (patients responding of patients studied) [9]: 6 of 11
local growth of tumors (B-16 melanoma): reduction
number of the lung metastasis (B-16 melanoma): reduction
local growth of tumors (MS-2 fibrosarcoma cells): reduction
number of the lung metastasis (MS-2 fibrosarcoma cells): reduction
binding (normal tissues): high affinity, saturable and specific
binding affinity (neoplastic tissues): much lower
tumor arrest and regression (tumors [1]): arrest and partial regression of tumors
binding to cellular membranes [10]: bind to the cellular membranes
binding to cellular membranes [11]: bind to the cellular membranes
binding to cellular membranes [12]: bind to the cellular membranes
toxicity in hematic, biochemical, electrophoretic, organ, bone marrow and histological tests [2]: have not shown any particularly toxicity
LD50 (Acute toxicity in rats): > 200 mg/kg
LD50 (Acute toxicity in mice; ip, intraperitoneally): > 100 mg/kg
LD50 (Acute toxicity in mice; po, per os): > 100 mg/kg
oncostatic effects [13]: Powerful oncostatic effects
oncostatic effects (tumors [14]): Powerful oncostatic effects
inhibition of stimulated dopamine release [4]: potent inhibitors
